In publication PMC8698454, “Anti-Colonization Effect of Au Surfaces with Self-Assembled Molecular Monolayers Functionalized with Antimicrobial Peptides on S. epidermidis” (Antibiotics, 2021):
Values after ≈ are worked out from the molar mass of the structure shown. Read-outs that look alike come from different tables or passages of the source. Where a SMILES comes first, the peptide text is derived from it. [ ]: non-standard residue; d: D form. Bip = N[C@@H](Cc1ccc(-c2ccccc2)cc1)C(=O)O; Lys(N3) = [N-]=[N+]=NCCCC[C@H](N)C(=O)O

Experiments:
Format in all cases: cell-based
[1] = system: Pseudomonas aeruginosa ATCC 27853; conditions: for Antimicrobial Activity (MIC) P. aeruginosa: ATCC 27853; for MIC P. aeruginosa ATCC 27853: Table S3
Experimental: (§1) The minimal inhibitory concentration (MIC) of peptides 1a, 1b, 2a, and 2b were determined by broth microdilution according to the Clinical Laboratory Standard Institute (CLSI) method […]-A9. The MICs of the peptides 1c, 1d, 2c, and 2d were determined by broth dilution according to the European Committee for Antimicrobial Susceptibility Testing (EUCAST). Final concentrations of 0.5-256 μg/mL were tested against a panel of reference bacteria-S. aureus (ATCC 9144), S. epidermidis (1457), E. coli (ATCC 25922), and P. aeruginosa (ATCC 27853). Each strain was tested in biological triplicate. The MIC values were defined as the lowest concentration of the peptides resulting in no visual growth.

[2] = system: Staphylococcus aureus ATCC 9144; conditions: for Antimicrobial Activity (MIC) S. aureus: ATCC 9144; for MIC S. aureus ATCC 9144: Table S3
Experimental: as §1

[3] = system: Staphylococcus epidermidis 1457; conditions: for Antimicrobial Activity (MIC) S. epidermidis: 1457; for MIC S. epidermidis 1457: Table S3
Experimental: as §1

[4] = system: Escherichia coli ATCC 25922; conditions: for Antimicrobial Activity (MIC) E. coli: ATCC 25922; for MIC E. coli ATCC 25922: Table S3
Experimental: as §1

[5] = technical replicate 1, biological replicate BR1
[6] = technical replicate 1, biological replicate BR2
[7] = technical replicate 1, biological replicate BR3
[8] = technical replicate 2, biological replicate BR1
[9] = technical replicate 2, biological replicate BR2
[10] = technical replicate 2, biological replicate BR3
[11] = technical replicate 3, biological replicate BR1
[12] = technical replicate 3, biological replicate BR2
[13] = technical replicate 3, biological replicate BR3

Row | Antimicrobial Activity (MIC) P. aeruginosa [1] [µg/mL] | MIC P. aeruginosa ATCC 27853 [1, 5] [µg/mL] | MIC P. aeruginosa ATCC 27853 [1, 6] [µg/mL] | MIC P. aeruginosa ATCC 27853 [1, 7] [µg/mL] | MIC P. aeruginosa ATCC 27853 [1, 8] [µg/mL] | MIC P. aeruginosa ATCC 27853 [1, 9] [µg/mL] | MIC P. aeruginosa ATCC 27853 [1, 10] [µg/mL] | MIC P. aeruginosa ATCC 27853 [1, 11] [µg/mL] | MIC P. aeruginosa ATCC 27853 [1, 12] [µg/mL] | MIC P. aeruginosa ATCC 27853 [1, 13] [µg/mL] | Antimicrobial Activity (MIC) S. aureus [2] [µg/mL] | MIC S. aureus ATCC 9144 [2, 5] [µg/mL] | MIC S. aureus ATCC 9144 [2, 6] [µg/mL] | MIC S. aureus ATCC 9144 [2, 7] [µg/mL] | MIC S. aureus ATCC 9144 [2, 8] [µg/mL] | MIC S. aureus ATCC 9144 [2, 9] [µg/mL] | MIC S. aureus ATCC 9144 [2, 10] [µg/mL] | MIC S. aureus ATCC 9144 [2, 11] [µg/mL] | MIC S. aureus ATCC 9144 [2, 12] [µg/mL] | MIC S. aureus ATCC 9144 [2, 13] [µg/mL] | SMILES | also measured
1 | 16 | 8 (≈ 7.43 µM) | 8 (≈ 7.43 µM) | 16 (≈ 14.9 µM) | 16 (≈ 14.9 µM) | 16 (≈ 14.9 µM) | 16 (≈ 14.9 µM) | 16 (≈ 14.9 µM) | 8 (≈ 7.43 µM) | 16 (≈ 14.9 µM) | 8 | 8 (≈ 7.43 µM) | 4 (≈ 3.71 µM) | 8 (≈ 7.43 µM) | 8 (≈ 7.43 µM) | 8 (≈ 7.43 µM) | 8 (≈ 7.43 µM) | 8 (≈ 7.43 µM) | 4 (≈ 3.71 µM) | 8 (≈ 7.43 µM) | [N-]=[N+]=NCCCC[C@H](NC(=O)[C@H](Cc1ccccc1)NC(=O)[C@H](CCCNC(=N)N)NC(=O)[C@H](Cc1ccc(-c2ccccc2)cc1)NC(=O)[C@H](Cc1ccc(-c2ccccc2)cc1)NC(=O)[C@@H](N)CCCNC(=N)N)C(N)=O [2c] (H-R[Bip][Bip]RF[Lys(N3)]-NH2) | Antimicrobial Activity (MIC) S. epidermidis [3]: 4 µg/mL; MIC S. epidermidis 1457 [3, 5]: 8 µg/mL (≈ 7.43 µM); MIC S. epidermidis 1457 [3, 6]: 4 µg/mL (≈ 3.71 µM); MIC S. epidermidis 1457 [3, 7]: 8 µg/mL (≈ 7.43 µM); MIC S. epidermidis 1457 [3, 8]: 4 µg/mL (≈ 3.71 µM); MIC S. epidermidis 1457 [3, 9]: 4 µg/mL (≈ 3.71 µM); MIC S. epidermidis 1457 [3, 10]: 8 µg/mL (≈ 7.43 µM); MIC S. epidermidis 1457 [3, 11]: 4 µg/mL (≈ 3.71 µM); MIC S. epidermidis 1457 [3, 12]: 4 µg/mL (≈ 3.71 µM); MIC S. epidermidis 1457 [3, 13]: 8 µg/mL (≈ 7.43 µM); Antimicrobial Activity (MIC) E. coli [4]: 8 µg/mL; MIC E. coli ATCC 25922 [4, 5]: 8 µg/mL (≈ 7.43 µM); MIC E. coli ATCC 25922 [4, 6]: 8 µg/mL (≈ 7.43 µM); MIC E. coli ATCC 25922 [4, 7]: 16 µg/mL (≈ 14.9 µM); MIC E. coli ATCC 25922 [4, 8]: 8 µg/mL (≈ 7.43 µM); MIC E. coli ATCC 25922 [4, 9]: 8 µg/mL (≈ 7.43 µM); MIC E. coli ATCC 25922 [4, 10]: 16 µg/mL (≈ 14.9 µM); MIC E. coli ATCC 25922 [4, 11]: 8 µg/mL (≈ 7.43 µM); MIC E. coli ATCC 25922 [4, 12]: 16 µg/mL (≈ 14.9 µM); MIC E. coli ATCC 25922 [4, 13]: 8 µg/mL (≈ 7.43 µM)
2 | 256 | 256 (≈ 241 µM) | 256 (≈ 241 µM) | 256 (≈ 241 µM) | 256 (≈ 241 µM) | 256 (≈ 241 µM) | 256 (≈ 241 µM) | 256 (≈ 241 µM) | 256 (≈ 241 µM) | 256 (≈ 241 µM) | 4 | 8 (≈ 7.55 µM) | 4 (≈ 3.77 µM) | 4 (≈ 3.77 µM) | 4 (≈ 3.77 µM) | 4 (≈ 3.77 µM) | 8 (≈ 7.55 µM) | 4 (≈ 3.77 µM) | 4 (≈ 3.77 µM) | 4 (≈ 3.77 µM) | [N-]=[N+]=NCCCC[C@@H]1NC(=O)[C@H](Cc2ccccc2)NC(=O)[C@H](CCCNC(=N)N)NC(=O)[C@H](Cc2ccc(-c3ccccc3)cc2)NC(=O)[C@H](Cc2ccc(-c3ccccc3)cc2)NC(=O)[C@H](CCCNC(=N)N)NC1=O [2d] (cyclo(R[Bip][Bip]RF[Lys(N3)])) | Antimicrobial Activity (MIC) S. epidermidis [3]: 2 µg/mL; MIC S. epidermidis 1457 [3, 5]: 4 µg/mL (≈ 3.77 µM); MIC S. epidermidis 1457 [3, 6]: 2 µg/mL (≈ 1.89 µM); MIC S. epidermidis 1457 [3, 7]: 2 µg/mL (≈ 1.89 µM); MIC S. epidermidis 1457 [3, 8]: 2 µg/mL (≈ 1.89 µM); MIC S. epidermidis 1457 [3, 9]: 2 µg/mL (≈ 1.89 µM); MIC S. epidermidis 1457 [3, 10]: 2 µg/mL (≈ 1.89 µM); MIC S. epidermidis 1457 [3, 11]: 2 µg/mL (≈ 1.89 µM); MIC S. epidermidis 1457 [3, 12]: 2 µg/mL (≈ 1.89 µM); MIC S. epidermidis 1457 [3, 13]: 2 µg/mL (≈ 1.89 µM); Antimicrobial Activity (MIC) E. coli [4]: 64 µg/mL; MIC E. coli ATCC 25922 [4, 5]: 64 µg/mL (≈ 60.4 µM); MIC E. coli ATCC 25922 [4, 6]: 64 µg/mL (≈ 60.4 µM); MIC E. coli ATCC 25922 [4, 7]: 64 µg/mL (≈ 60.4 µM); MIC E. coli ATCC 25922 [4, 8]: 64 µg/mL (≈ 60.4 µM); MIC E. coli ATCC 25922 [4, 9]: 64 µg/mL (≈ 60.4 µM); MIC E. coli ATCC 25922 [4, 10]: 32 µg/mL (≈ 30.2 µM); MIC E. coli ATCC 25922 [4, 11]: 64 µg/mL (≈ 60.4 µM); MIC E. coli ATCC 25922 [4, 12]: 64 µg/mL (≈ 60.4 µM); MIC E. coli ATCC 25922 [4, 13]: 32 µg/mL (≈ 30.2 µM)
